Measurements published in patent publication US20230132982A1, “USE OF PYRIDO[1,2-A]PYRIMIDINONE COMPOUND IN TREATING LYMPHOMA” (priority 2020, published 2023).

Tests used:
Type in all cases: in vivo, human
[1] = tested on: Chronic lymphocytic leukemia/small lymphocytic lymphoma; experiment: Clinical trial in small lymphocytic lymphoma or chronic lymphocytic leukemia (Example 6); conditions: 20 mg orally once daily, 28-day cycle
Procedure: (§1) Method of administration: orally administered once daily, 20 mg each time, with 28 consecutive days of administration as one cycle. Drug: tablet of the compound of formula I, 5 mg or 20 mg. […] The efficacy was evaluated with reference to IWCLL2008 evaluation criteria and the evaluation criteria revised by the Lugano conference, 2014 edition. Primary evaluation indexes of efficacy: objective response rate (ORR), i.e., (CR+PR cases)/total cases, including cases of complete response (CR) and partial response (PR). Secondary evaluation indexes of efficacy: progression-free survival (PFS), overall survival (OS), disease control rate (DCR) and duration of response (DOR).

[2] = tested on: relapsed or refractory lymphoma; experiment: Clinical trial of tablets of the compound of formula I in relapsed or refractory lymphoma (Example 2); parameters: key to Best efficacy: “Small SD” means that at the time of efficacy evaluation, a lesion shrinks in size compared with a baseline level, but does not meet the criteria for PR
Procedure: Drug: tablet of the compound of formula I, 1 mg or 5 mg. 2.2 Enrollment Criteria • 1) Unambiguously diagnosed as relapsed or refractory lymphoma by pathology and/or cytology; • 2) Has at least one measurable target lesion other than brain lesions confirmed by imaging in screening phase (evaluated according to the evaluation criteria revised by the Lugano conference, 2014 edition); • 3) Aged 18-75 years; • 4) ECOG (PS) score ≤1; • 5) Expected survival time ≥3 months; • 6) Main organ functions in the screening phase meet the following criteria: Criteria for blood routine examination (no growth factor used or no blood transfusion conducted within 7 days): • Absolute value of neutrophil count (ANC)≥1.5×10^9/L; • Platelet (PLT)≥75×10^9/L; hemoglobin (Hb)≥90 g/L; Criteria for blood biochemical examination: • Alanine transaminase (ALT) and aspartate transferase (AST)≤1.5×ULN (for patients with tumor liver metastasis, ≤3×ULN); • Glycosylated hemoglobin (HbA1c)≤8.5%; • Lipase≤1.5×ULN; • Serum total bilirubin≤1.5×ULN; • Serum creatinine (Cr)≤1.5×ULN; • 7) Doppler ultrasound evaluation: left ventricular ejection fraction (LVEF)≥lower limit of normal (50%); • 8) Female subjects should agree to take contraceptive measures (such as intrauterine devices [IUD], contraceptives or condoms) during the study and for 6 months after the study; serum or urine pregnancy test results should be negative within 7 days before enrollment, and the subjects must not be breastfeeding; male subjects should agree to take contraceptive measures during the study and for 6 months after the study; and • 9) Voluntary participation, written informed consent and good compliance. The efficacy was evaluated according to the revised evaluation criteria of the Lugano conference, 2014 edition. Primary evaluation indexes of efficacy: objective response rate (ORR), i.e., (CR+PR cases)/total cases, including cases of complete response (CR) and partial response (PR). Secondary evaluation indexes of efficacy: progression-free survival (PFS), overall survival (OS), disease control rate (DCR) and duration of response (DOR).

[3] = tested on: relapsed/refractory mantle cell lymphoma; experiment: Clinical trial in relapsed/refractory mantle cell lymphoma (Example 3)
Procedure: as §1, with “according” for “with reference”, “the revised” for “IWCLL2008”, “of” for “and the evaluation criteria revised by”

[4] = tested on: relapsed or refractory FL; experiment: Clinical trial in relapsed or refractory follicular lymphoma (Example 4)
Procedure: as §1, with “according” for “with reference”, “the revised” for “IWCLL2008”, “of” for “and the evaluation criteria revised by”

[5] = tested on: relapsed/refractory diffuse large B-cell lymphoma (DLBCL); experiment: Clinical trial in relapsed/refractory diffuse large B-cell lymphoma (Example 5); conditions: 20 mg orally once daily, 21-day cycle
Procedure: as §1, with “21” for “28”, “according” for “with reference”, “the revised” for “IWCLL2008”, “of” for “and the evaluation criteria revised by”

[6] = 20 mg QD dose group, 20 patients
[7] = 22 lymphoma patients enrolled, 18 evaluable for efficacy
[8] = Tumor type Lymphoma, 43 patients
[9] = overall conclusion of the trial
[10] = patient R1009, DLBCL, 10 mg/qd, administration cycle C7D28
[11] = patient R1018, FL, 20 mg/bid, administration cycle C2D28
[12] = patient R2008, FL, 10 mg/bid, administration cycle C2D3

COc1ncc(-c2ccc3ncc(OCCN(C)C)c(=O)n3c2)cc1NS(=O)(=O)c1ccc(F)cc1Cl [compound of formula I]
safety in treatment [1]: good safety
treatment effect on small lymphocytic lymphoma or chronic lymphocytic leukemia [1]: good treatment effect
ORR ([2]; 10 mg/qd and higher-dose group (11/15), 22 patients enrolled): 73%
adverse event, a grade 3 hyperglycemia [2, 6]: 1 case
overall safety and tolerance [2, 6]: good overall safety and tolerance
ORR ([2]; 20 mg/qd group (4/4), 22 patients enrolled): 100%
patients achieved CR (best efficacy) [2, 7]: 2 patients
patients achieved PR (best efficacy) [2, 7]: 9 patients
ORR ([2]; 35 lymphoma patients enrolled, 31 evaluated for efficacy (22/31)): 71%
major grade 3 adverse event and dose-limiting toxicity (DLT) associated with study drugs ([2]; 35 lymphoma patients enrolled, controlled and returned to baseline by withdrawal of drug or symptom-oriented treatment): hyperglycemia
ORR ([2]; 50 lymphoma patients enrolled, 43 evaluated for efficacy (28/43)): 65%
ORR, n (%) ([2]; Tumor type CLL, 2 patients): 2 (100%) n (%)
CR, n (%) ([2]; Tumor type DLBCL, 8 patients): 2 (25.0%) n (%)
ORR, n (%) ([2]; Tumor type DLBCL, 8 patients): 4 (50.0%) n (%)
CR, n (%) ([2]; Tumor type FL, 20 patients): 2 (10.0%) n (%)
ORR, n (%) ([2]; Tumor type FL, 20 patients): 15 (75%) n (%)
CR, n (%) [2, 8]: 4 (9.3%) n (%)
ORR, n (%) [2, 8]: 28 (65%) n (%)
ORR, n (%) ([2]; Tumor type MCL, 5 patients): 5 (100%) n (%)
CR, n (%) ([2]; Tumor type NHL, 41 patients): 4 (9.8%) n (%)
ORR, n (%) ([2]; Tumor type NHL, 41 patients): 28 (68%) n (%)
Best efficacy ([2]; all the two follicular lymphoma patients in the 20 mg/qd group): achieved PR
Best efficacy ([2]; all the two mantle cell lymphoma patients, relapsed or refractory after BTK inhibitor treatment): achieved PR
ORR ([2]; follicular lymphoma (FL), 10 mg/qd and higher-dose group (6/8)): 75%
safety [2, 9]: good safety
therapeutic effect on lymphoma [2, 9]: good therapeutic effect
Change in lesion ([2]; patient R1006, FL, 10 mg/qd, administration cycle C5D28): −84.0%
Best efficacy [2, 10]: Small SD
Change in lesion [2, 10]: −37.5%
Best efficacy [2, 11]: Small SD
Change in lesion [2, 11]: −33.0%
Change in lesion ([2]; patient R2006, DLBCL, 10 mg/qd, administration cycle C3D28): −100.0%
Best efficacy [2, 12]: Small SD
Change in lesion [2, 12]: −42.0%
Change in lesion ([2]; patient R2009, MCL, 10 mg/bid, administration cycle C3D28): −71.0%
Change in lesion ([2]; patient R2011, FL, 20 mg/bid, administration cycle C1D14): −94.0%
safety in treatment ([3]; 20 mg orally once daily): good safety
therapeutic effect on mantle cell lymphoma ([3]; 20 mg orally once daily): good therapeutic effect
CR ([3]; 21 patients with mantle cell lymphoma, 20 mg orally once daily (2 cases)): 9.5%
ORR ([3]; 21 patients with mantle cell lymphoma, 20 mg orally once daily (16 cases)): 76%
patients reached ORR ([3]; of the 7 patients previously treated with a BTK inhibitor): Five
safety in treatment ([4]; 20 mg orally once daily): good safety
therapeutic effect on follicular lymphoma ([4]; 20 mg orally once daily): good therapeutic effect
CR ([4]; 20 patients with follicular lymphoma, 20 mg orally once daily (2 cases)): 10.0%
ORR ([4]; 20 patients with follicular lymphoma, 20 mg orally once daily (14 cases)): 70%
safety in treatment [5]: good safety
therapeutic effect on diffuse large B-cell lymphoma [5]: good therapeutic effect
